# Values joined by “and” are separate entries in the source; they are usually repeats but may differ in a detail not shown here. Identical values can stand only once.
# Test system: Hs578T multi-cell spheroids, viability
# Assay: Anticancer human tumor Hs578T cell line growth inhibition [IpAb];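 also: drug exposure lasted 7 days before readout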
# Details: for viability, T/C: stronger effect = lower value
# In short: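 Combinations with ipatasertib or abemaciclib were tested on tumour spheroids holding HUVEC (25%) and MSC (15%) alongside 60% malignant cells. Top concentration was at or near clinical Cmax (10 microM if undefined), descending in half-log steps.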
# [1] = curve of first compound, second compound 0.01 µM
# [2] = curve of first compound, second compound 0.0316 µM
# [3] = curve of first compound, second compound 0.1 µM
# [4] = curve of first compound, second compound 0.316 µM
# [5] = curve of first compound, second compound 1 µM
# [6] = second compound 0.01 µM, first compound 0.0316 µM
# [7] = second compound 0.01 µM, first compound 0.1 µM
# [8] = second compound 0.01 µM, first compound 0.316 µM
# [9] = second compound 0.01 µM, first compound 1 µM
# [10] = second compound 0.01 µM, first compound 3.16 µM
# [11] = second compound 0.01 µM, first compound 10 µM
# [12] = second compound 0.0316 µM, first compound 0.0316 µM
# [13] = second compound 0.0316 µM, first compound 0.1 µM
# [14] = second compound 0.0316 µM, first compound 0.316 µM
# [15] = second compound 0.0316 µM, first compound 1 µM
# [16] = second compound 0.0316 µM, first compound 3.16 µM
# [17] = second compound 0.0316 µM, first compound 10 µM
# [18] = second compound 0.1 µM, first compound 0.0316 µM
# [19] = second compound 0.1 µM, first compound 0.1 µM
# [20] = second compound 0.1 µM, first compound 0.316 µM
# [21] = second compound 0.1 µM, first compound 1 µM
# [22] = second compound 0.1 µM, first compound 3.16 µM
# [23] = second compound 0.1 µM, first compound 10 µM
# [24] = second compound 0.316 µM, first compound 0.0316 µM
# [25] = second compound 0.316 µM, first compound 0.1 µM
# [26] = second compound 0.316 µM, first compound 0.316 µM
# [27] = second compound 0.316 µM, first compound 1 µM
# [28] = second compound 0.316 µM, first compound 3.16 µM
# [29] = second compound 0.316 µM, first compound 10 µM
# [30] = second compound 1 µM, first compound 0.0316 µM
# [31] = second compound 1 µM, first compound 0.1 µM
# [32] = second compound 1 µM, first compound 0.316 µM
# [33] = second compound 1 µM, first compound 1 µM
# [34] = second compound 1 µM, first compound 3.16 µM
# [35] = second compound 1 µM, first compound 10 µM
SMILES,IC50 [3] [nM],IC50 [4] [nM],IC50 [5] [nM],"viability, T/C [18] [%]","viability, T/C [19] [%]","viability, T/C [20] [%]","viability, T/C [21] [%]","viability, T/C [22] [%]","viability, T/C [23] [%]","viability, T/C [24] [%]","viability, T/C [25] [%]","viability, T/C [26] [%]","viability, T/C [27] [%]","viability, T/C [28] [%]","viability, T/C [29] [%]","viability, T/C [30] [%]","viability, T/C [31] [%]","viability, T/C [32] [%]","viability, T/C [33] [%]","viability, T/C [34] [%]",further results
Cc1nc(NC(=O)N2CCCC2C(N)=O)sc1-c1ccnc(C(C)(C)C(F)(F)F)c1 (centres undefined),–,–,–,–,–,–,–,–,–,–,–,–,–,–,–,–,–,–,–,–,"viability, T/C (compound 0.0316 µM): 96.6% and 110%; viability, T/C (compound 0.1 µM): 93.1% and 95.3%; viability, T/C (compound 0.316 µM): 79.6% and 79.2%; viability, T/C (compound 1 µM): 60% and 58.8%; viability, T/C (compound 3.16 µM): 42.5% and 45.5%; viability, T/C (compound 10 µM): 13.9% and 16.4%; IC50 (curve of compound): 1930 nM and 1900 nM"
CC1(C)CCC(CN2CCN(c3ccc(C(=O)NS(=O)(=O)c4ccc(NCC5CCOCC5)c([N+](=O)[O-])c4)c(Oc4cnc5[nH]ccc5c4)c3)CC2)=C(c2ccc(Cl)cc2)C1,–,–,–,–,–,–,–,–,–,–,–,–,–,–,–,–,–,–,–,–,"viability, T/C (compound 0.0316 µM): 105% and 104%; viability, T/C (compound 0.1 µM): 103% and 110%; viability, T/C (compound 0.316 µM): 99.5% and 102%; viability, T/C (compound 1 µM): 104%; viability, T/C (compound 3.16 µM): 89.2% and 92.6%; viability, T/C (compound 10 µM): 17% and 19%; IC50 (curve of compound): 5910 nM and 6160 nM"
C=CC(=O)N1CCN(c2nc(=O)n(-c3c(C)ccnc3C(C)C)c3nc(-c4c(O)cccc4F)c(F)cc23)C(C)C1 (centres undefined) + CCN1CCN(Cc2ccc(Nc3ncc(F)c(-c4cc(F)c5nc(C)n(C(C)C)c5c4)n3)nc2)CC1,> 10000,> 10000,> 10000,92.5,86.3,94.1,102,92.5,77.2,93.2,95.5,98,101,92.8,77.9,104,107,112,118,101,"IC50 [1]: > 10000 nM; IC50 [2]: > 10000 nM; viability, T/C [6]: 97.5%; viability, T/C [7]: 103%; viability, T/C [8]: 101%; viability, T/C [9]: 96.2%; viability, T/C [10]: 98.8%; viability, T/C [11]: 74.5%; viability, T/C [12]: 96%; viability, T/C [13]: 97.2%; viability, T/C [14]: 100%; viability, T/C [15]: 96%; viability, T/C [16]: 92.3%; viability, T/C [17]: 76.8%; viability, T/C [35]: 88.4%"
C=CC(=O)N1CCN(c2nc(=O)n(-c3c(C)ccnc3C(C)C)c3nc(-c4c(O)cccc4F)c(F)cc23)C(C)C1 (centres undefined) + CC(C)NCC(C(=O)N1CCN(c2ncnc3c2C(C)CC3O)CC1)c1ccc(Cl)cc1,> 10000,> 10000,> 10000,94.2,103,102,112,94.4,72,83.7,90.6,90.1,89.5,84,65.5,70.8,70.9,69.3,75.1,66.2,"IC50 (curve of first compound, second compound 3.16 µM): 3950 nM; IC50 (curve of first compound, second compound 10 µM): < 31.6 nM; viability, T/C [35]: 55.1%; viability, T/C (second compound 3.16 µM, first compound 0.0316 µM): 56.7%; viability, T/C (second compound 3.16 µM, first compound 0.1 µM): 59.6%; viability, T/C (second compound 3.16 µM, first compound 0.316 µM): 55.1%; viability, T/C (second compound 3.16 µM, first compound 1 µM): 54.5%; viability, T/C (second compound 3.16 µM, first compound 3.16 µM): 52.8%; viability, T/C (second compound 3.16 µM, first compound 10 µM): 41.9%; viability, T/C (second compound 10 µM, first compound 0.0316 µM): 45.1%; viability, T/C (second compound 10 µM, first compound 0.1 µM): 50.4%; viability, T/C (second compound 10 µM, first compound 0.316 µM): 46.9%; viability, T/C (second compound 10 µM, first compound 1 µM): 49.1%; viability, T/C (second compound 10 µM, first compound 3.16 µM): 46.5%; viability, T/C (second compound 10 µM, first compound 10 µM): 20.4%"
Cn1ncc(Cl)c1-c1cc(C(=O)NC(CN)Cc2cccc(F)c2)sc1Cl (centres undefined) + CCN1CCN(Cc2ccc(Nc3ncc(F)c(-c4cc(F)c5nc(C)n(C(C)C)c5c4)n3)nc2)CC1,791,829,1210,80.5,67.5,52.9,42.5,42.5,0.24,81.2,72,56.7,47.6,33.9,0.21,90,76.6,67.3,60.1,7.93,"IC50 [1]: 1410 nM; IC50 [2]: 1330 nM; viability, T/C [6]: 92.1%; viability, T/C [7]: 83.3%; viability, T/C [8]: 67.1%; viability, T/C [9]: 49.1%; viability, T/C [10]: 46.8%; viability, T/C [11]: 0.26%; viability, T/C [12]: 86%; viability, T/C [13]: 76.8%; viability, T/C [14]: 65.2%; viability, T/C [15]: 51.2%; viability, T/C [16]: 42%; viability, T/C [17]: 0.24%; viability, T/C [35]: 0.46%"
C=CCn1c(=O)c2cnc(Nc3ccc(N4CCN(C)CC4)cc3)nc2n1-c1cccc(C(C)(C)O)n1 + CCN1CCN(Cc2ccc(Nc3ncc(F)c(-c4cc(F)c5nc(C)n(C(C)C)c5c4)n3)nc2)CC1,459,1260,2140,82.6,72.2,57.1,36.4,24.9,19.2,80.4,76.9,69,55.6,32.3,21.4,94.4,92.9,79.4,65,42.5,"IC50 [1]: 366 nM; IC50 [2]: 376 nM; viability, T/C [6]: 92.1%; viability, T/C [7]: 86.3%; viability, T/C [8]: 51.9%; viability, T/C [9]: 27.9%; viability, T/C [10]: 16.8%; viability, T/C [11]: 17.2%; viability, T/C [12]: 86.3%; viability, T/C [13]: 75.3%; viability, T/C [14]: 53%; viability, T/C [15]: 31.9%; viability, T/C [16]: 21.2%; viability, T/C [17]: 17.4%; viability, T/C [35]: 24%"
